103 molecules from ChEMBL document CHEMBL3507680, “University of Dundee, Gates Library screen for HepG2 cell viability” can be followed below.

This data set in a line: Human HepG2 cell viability assay in 384 well format. The conditions noted are these: HepG2 cells, read-out: Inhibition. It counts as toxicity, cell-based. Further details: dose 125 nL, time 70.5 hour; concentration not given beside the values.

In the case of `COc1ccc(CNC(=O)NCC(=O)NC2CC2)c(C(F)(F)F)c1`, the cytotoxicity at 70.5 h was determined as 21.2%.
As for `CCCOc1cc(C)ccc1NC(=O)N(C)C`, the cytotoxicity at 70.5 h was found to be 4.68%.
For `CN(C)C(CNC(=O)c1ccc(-n2cnnn2)cc1)c1ccccc1Cl` (stereo not drawn), the cytotoxicity at 70.5 h stood at 5.44%.
Next, `COc1ccc(CNC(=O)NC2CCN(C)CC2)c(C(F)(F)F)c1`: 2.4%.
The result for `CC(CN1CCCC1=O)NC(=O)c1cc(Cl)c2c(c1)OCO2` (stereo not drawn) reads 7.24%; that for `CCN(C(=O)c1cnc(-c2ccc3c(c2)OCO3)s1)C1CC1`, 12.4%.
On to `Cc1cccc(S(=O)(=O)NC(=O)CCc2cscn2)c1`, for which the cytotoxicity at 70.5 h was found to be 4.67%.
Next, `CSc1ccc(NC(=O)NCC2CCCO2)cc1F` (stereo not drawn): 11.2%.
Next, `Cc1ccc(S(=O)(=O)NC(=O)CCc2cscn2)cc1Cl`: 25.6%; `Cc1ccc(C(=O)N2CCCC(n3cncn3)C2)o1` (stereo not drawn): 1.71%; `CC(C)c1cnc(CN(C)C2CCN(CCS(C)(=O)=O)C2)o1` (stereo not drawn): 2.71%.
Next, `Cc1nn(C)c(N2CCOCC2)c1CNC(C)c1ccccn1` (stereo not drawn): 5.82%; `Cc1nc(CN(C)C2CCN(Cc3nc(C4CC4)no3)C2)no1` (stereo not drawn): -1.35%; `CCCc1n[nH]c(C2CN(C(=O)CCn3nc(C)cc3C)CCO2)n1` (stereo not drawn): 0.729%.
As to `CCCC(=O)NCC(=O)NC(c1ccc(Cl)cc1)C(F)(F)F` (stereo not drawn), the cytotoxicity at 70.5 h turned out to be 8.36%.
Next, `C/C(=C/c1ccccc1)CNCc1cccc(C(N)=O)c1`: -10.9%; `Cc1nc(CNC(=O)CCN2CCN(c3ccccn3)CC2)oc1C`: 6.4%; `Cc1nc(CNC(=O)CCN2CCN(c3ccccc3)CC2)oc1C`: 2.07%.
Next, `CS(=O)(=O)CCNC(=O)N(Cc1ccoc1)C1CCCCC1`: -7.65%; `COc1ccc(OCC(=O)NS(=O)(=O)c2ccc(Cl)s2)cc1`: -8.59%; `O=C(NCC1(c2cccc(F)c2)CC1)N1CCC2(CCOC2)C1` (stereo not drawn): -7.28%.
The result for `Cc1nc(CNc2ccc(C(=O)NCc3ccco3)cc2C)no1` reads -11.5%; that for `N#CCc1ccc(OCC(=O)NS(=O)(=O)c2ccc(Cl)s2)cc1`, -7.69%.
On to `Cc1ncc(CNc2ccc(C(=O)NCc3ccco3)cc2C)s1`, for which the cytotoxicity at 70.5 h worked out at 1.95%.
Next, `O=C(Nc1ccc2c(c1)OC1(CCCC1)O2)c1ccc(=O)[nH]n1`: -6.98%.
Consider `O=C(NCCN1CCOCC1)N(Cc1ccoc1)C1CCCCC1`, for which the cytotoxicity at 70.5 h is 1.39%.
Take `CCNC(=O)N(Cc1ccoc1)C1CCCCC1`: the cytotoxicity at 70.5 h is -5.6%.
The result for `O=C(NCCCNc1ccccn1)NCC1CCS(=O)(=O)C1` (stereo not drawn) reads -8.26%; that for `CCN(CCNCc1ccc(C#N)cc1)C1CC1`, -6.58%.
Next, `CC(=O)N(Cc1ccoc1)C1CCCCC1`: -5.21%; `CN(CCN1CCCC1=O)CC(c1cccs1)N1CCOCC1` (stereo not drawn): -11.7%; `CC(CO)(NCc1noc(Cc2ccccc2)n1)C1CCCCC1` (stereo not drawn): -0.885%.
The result for `COCCOc1ccc(CNc2nc3ccccc3o2)cn1` reads -10.8%; that for `Cc1ccc(-c2nc(CSCCC(=O)NC(N)=O)co2)c(C)c1`, 22%; that for `Cc1ccc(S(=O)(=O)NC(=O)C2(c3ccc(F)cc3)CCC2)c(C)c1`, 26.9%.
`CS(=O)(=O)CCC(=O)N(CCc1cccc(F)c1)C1CC1`: the cytotoxicity at 70.5 h is -11.4%.
The result for `Cn1c2ncccc2c(=O)n1CC(=O)NCCC1=CCCCC1` reads -2.08%; that for `O=C(NC1CCCN(c2ccccc2Cl)C1)c1c[nH]nn1` (stereo not drawn), -10.1%.
Next, `O=C(NC1CCCN(c2ccccc2Cl)C1)c1nc(=O)[nH][nH]1` (stereo not drawn): 25.3%; `CSc1ccc(OCCN2CCC(n3cncn3)CC2)cc1`: -13.7%.
Next, `N#Cc1ccsc1N1CCC(Sc2ncc[nH]2)C1=O` (stereo not drawn): -7.58%.
`COc1cc2c(c(OC)c1OC)CCN(CCN1CCCCC1)CC2`: the cytotoxicity at 70.5 h was -10.5%.
Next, `Cc1cc(=O)[nH]cc1C(=O)N1CCN(C)c2ccccc2C1`: -0.391%; `CC(C)(CO)CCCNC(=O)NC1(c2ccccc2F)CC1`: 3.5%; `CC(=O)N(Cc1ccc(NCc2cnn(C(C)(C)C)c2)cc1)C(C)C`: -3.55%.
The result for `Cc1cc(C(=O)N2CCN(c3ccncc3Cl)CC2)n(C)n1` reads -1.44%.
On to `COc1cccc(OCC(=O)N(C)c2cccnc2)c1`, for which the cytotoxicity at 70.5 h is 24%.
Next, `Cc1cccc(C2CCCN2Cc2nc(N)nc(N(C)C)n2)c1C` (stereo not drawn): -9.17%; `CSCC1CCN(C(=O)c2ccccc2NCc2cccnc2)C1` (stereo not drawn): -8.12%.
For `Cc1noc(C(C)N2CCc3[nH]c4ccc(Cl)cc4c3C2)n1` (stereo not drawn), the cytotoxicity at 70.5 h was -8.97%.
Next, `CS(=O)(=O)CCN(CCc1cccc(F)c1)C1CC1`: -0.807%; `COc1cc2c(c(OC)c1OC)CCN(CCn1cncn1)CC2`: -8.44%; `COc1cc2c(c(OC)c1OC)CCN(CCn1nc(C)cc1C)CC2`: -6.93%.
Next, `COCCc1noc(CNC(C)(CO)C2CCCCC2)n1` (stereo not drawn): -0.882%; `CC(C)OC(=O)NCc1ccc(NCc2cnn(C(C)(C)C)c2)cc1`: -13.1%.
The result for `CN(C)C(=O)c1cccn1-c1ccc2c(c1)OCCO2` reads -2.2%; that for `O=C(C(c1ccccc1)N1CCc2cncnc2C1)N1CCCCC1` (stereo not drawn), 7.48%.
For the molecule `Fc1ccc(-c2cnc(CNC3CCc4ncnn4C3)o2)cc1` (stereo not drawn), the cytotoxicity at 70.5 h is -8.23%.
The result for `CC(Nc1ccn(Cc2ccccn2)n1)C(=O)NC(C)(C)C` (stereo not drawn) reads -7.21%; that for `Fc1ccc(-c2ccc(CNC3CCc4ncnn4C3)o2)cc1` (stereo not drawn), -9.49%; that for `Cn1cnc2c1CCN(C(C(=O)N1CCCCC1)c1ccccc1)C2` (stereo not drawn), -6.79%.
Take `CCc1nnsc1C(=O)N1CCN(CC(O)CC)CC1` (stereo not drawn): the cytotoxicity at 70.5 h was -10.3%.
For the molecule `Cn1nnc2c1CCN(C(C(=O)N1CCCCC1)c1ccccc1)C2` (stereo not drawn), the cytotoxicity at 70.5 h is -7.33%.
The result for `CC(C)Oc1ccc(C(O)CNCc2ccccc2C(F)(F)F)cc1` (stereo not drawn) reads -6.08%; that for `CCCS(=O)(=O)CC(=O)N1CCN(CC2CC2)c2ccccc21`, -7.98%.
The result for `CS(=O)(=O)CCCC(=O)N1CCN(CC2CC2)c2ccccc21` reads -7.11%; that for `CC(C)N(C)CC(=O)NCC(O)c1cc2ccccc2s1` (stereo not drawn), -7.72%.
Next, `CN(C)S(=O)(=O)NCC(O)c1cc2ccccc2s1` (stereo not drawn): 3.05%; `CNC(=O)C1CCCN(C(=O)OC)C1` (stereo not drawn): -5.12%; `OCC(CO)Nc1ccc2c(Cl)ccc(Cl)c2n1`: -1%.
For the molecule `COCCC(=O)N1CCN(CC2CC2)c2ccccc21`, the cytotoxicity at 70.5 h was -3.57%.
The result for `O=C(CNC1CCc2ncnn2C1)N(C1=CCCCC1)C1CC1` (stereo not drawn) reads -2.56%.
The result for `COc1ccc(N(Cc2ccco2)C(=O)C2CCCO2)cc1F` (stereo not drawn) reads -2.54%; that for `CCCN(C(=O)CNC1CCc2ncnn2C1)C1=CCCCC1` (stereo not drawn), -10.9%; that for `CC(C)c1cc(C(=O)NCC(O)C2CCOCC2)nn1C(C)(C)C` (stereo not drawn), 1.71%.
Next, `COc1cccc(F)c1C(C)NC(=O)NCc1ccnc(C)n1` (stereo not drawn): 26.5%; `CN(c1ccc(C#N)cn1)C1CCCN(Cc2noc(C3CC3)n2)C1` (stereo not drawn): -0.287%; `CC(=O)NCC1CCN(C(=O)c2c[nH]c3cc(Cl)ccc23)CC1`: -10.5%.
As to `Cc1nn(C)c(Cl)c1S(=O)(=O)N(C)c1ccc(Cl)cn1`, the cytotoxicity at 70.5 h worked out at 0.786%.
Regarding `Cc1cc(N(C)C)nc(NCCn2cccn2)n1`, the cytotoxicity at 70.5 h was -10%.
Turning to `Cc1cnn(CCNc2nc(C)cc(N(C)C)n2)c1`, the cytotoxicity at 70.5 h was determined as 11.4%.
Take `CCCN1C(=O)C2(CCCCC2)NC1c1cn(C)c(=O)n(C)c1=O` (stereo not drawn): the cytotoxicity at 70.5 h was -6.69%.
Regarding `CCSc1cncc(N2CCC(C(=O)Nc3ccccn3)CC2)n1`, the cytotoxicity at 70.5 h is -3.08%.
Next, `CCSc1cncc(N2CCC(C(=O)NC(C)C(C)C)CC2)n1` (stereo not drawn): -3.06%.
Next, `CN(Cc1cccs1)C(=O)Cn1cc(NC(=O)C(C)(C)C)cn1`: -7.51%; `CN(CC(F)(F)F)C(=O)Cn1cc(NC(=O)C(C)(C)C)cn1`: 3.96%; `COCCC(=O)Nc1cc(CC(C)(C)C)n[nH]1`: -6.88%.
The result for `O=C(NCC(O)C1CC1)Nc1cnn(Cc2ccccc2)c1` (stereo not drawn) reads -7.29%; that for `CC(C)C(O)CNC(=O)Nc1cnn(C(C)C)c1` (stereo not drawn), -8.43%.
On to `Cc1cccn2cc(C[S+]([O-])Cc3noc(C(C)C)n3)nc12` (stereo not drawn), for which the cytotoxicity at 70.5 h is -1.76%.
Turning to `COc1ccc(F)c(NCc2ccc(C(=O)N(C)C)[nH]2)c1`, the cytotoxicity at 70.5 h was determined as 15.8%.
Next, `Cc1ccc(CNC(=O)N2CCc3ccccc3C2CO)s1` (stereo not drawn): -5.32%; `Cc1ccc(F)c(NCc2ccc(C(=O)N(C)C)[nH]2)c1`: -3.46%; `CCCc1nc(CNc2ccc(F)c(F)c2)no1`: 14.6%.
Regarding `CC(=O)NCC1CCN(C(=O)c2c(C)[nH]c3ccc(Cl)cc23)CC1`, the cytotoxicity at 70.5 h is -0.185%.
On to `CCc1nc(CNc2ccc(F)c(F)c2)no1`, for which the cytotoxicity at 70.5 h is -7.5%.
Next, `CC(C)N(CC1CCCN(Cc2ccon2)C1)C(=O)OC(C)(C)C` (stereo not drawn): -2.83%; `N#CCSCCCN1CCC(C(=O)N2CCCCCC2)CC1`: -5.04%.
The result for `COc1ccc(C)cc1CC(=O)NC(CC(=O)O)c1ccc(F)cc1` (stereo not drawn) reads -18.4%.
The result for `CNC(=O)C(C)NC(=O)c1ccc(Oc2cccnc2)cc1` (stereo not drawn) reads -10.1%; that for `O=C(O)CC(NC(=O)c1cc(Br)c[nH]1)c1ccccc1` (stereo not drawn), -7.36%.
On to `CC(C)c1noc(CS(=O)(=O)CC(=O)NCc2ccccc2)n1`, for which the cytotoxicity at 70.5 h was -9.16%.
Next, `CC(C)CCOc1ccc(C(C)NC(=O)Cn2cccnc2=O)cc1` (stereo not drawn): -5.94%.
